Laboratory results published in patent US4462993A, “Aminoacridine-α, β-(D)- or -(L)-N-glycoside derivatives, the salts thereof and a process for the preparation of such compounds” (Biogal Gyogyszergyar, priority 1981, dated 1984).
Like-named read-outs stand apart in the source and are kept apart here.

Key:
[1] = decomposition product; cited from earlier work
[2] = toxicity measurements at CFLP-mice (LD50); settings: mouse, in vivo, female CFLP-mice
Excerpt: By the incorporation of one or more sugar residue(s) the toxicity of the compounds is influenced positively, too. The results of toxicity measurements carried out at CFLP-mice (female) (Litchfield, J. T. and Wilcoxon F.: J. Pharmacol. 96, 99 (1949) are summarized in the following Table.

[3] = test system: Ehrlich ascites tumor; settings: Schumelfelder et al., Z. Krebsforsch, 63, 129 (1959); cited from earlier work
[4] = test system: wounds; settings: disinfecting of wounds, World War II; cited from earlier work
[5] = literature; cited from earlier work
[6] = known; cited from earlier work
[7] = test system: Ehrlich tumor; experiment: inhibition and prevention of the Ehrlich tumor in mice and rats; type: in vivo
[8] = test system: Aspergillus niger; experiment: efficacy against Aspergillus niger; type: cell-based
Description: (§1) The incorporation of the sugar group into the aminoacridine molecule modifies its properties in an unforeseen way. Thus e.g. 3,6-diamino-acridine and 3,6-diamino-10-methyl-acridine are efficacious in concentrations of 50 μg/ml against microorganisme (Bacillus subtilis, Salmonalla typhy-murium, Proteus vulgaris, Escherichia coli, Shigella flexneri etc.) while the diglucoside of the 3,6-diamino-acridine is inefficacious also in concentrations of 500 μg/ml against the named microorganisms. Inversely the aminoacridines are inefficacious against fungi while the diglucoside of 3,6-diamino-10-methyl-acridine is efficacious e.g. against Aspergillus funigatus and Aspergillus niger.

[9] = test system: Aspergillus funigatus; experiment: efficacy against Aspergillus funigatus; type: cell-based
Description: as §1

[10] = test system: ascites tumor according to Ehrlich; experiment: test with the Ehrlich-carcinoma in mice; type: in vivo
Description: A test with the Ehrlich-carcinoma was carried out with 50 mice each as test group and as K control group. The animals were intraperitoneally infected with 5×10^6 cells each of the ascites tumor according to Ehrlich. On the first, second and third day after the infection half of the mice were treated with 12.5 mg/kg.d of 10-methyl-proflavine-diglucoside.

SMILES	LD50 ([2]; ip, read-out: LD50 i.p.) [mg/kg]	LD50 ([2]; iv, read-out: LD50 i.v.) [mg/kg]	healing of the wound [4]	tissue necrosis [4]	mutation of certain objects [5]	antimicrobial effect [6]	other results
O=c1c2ccccc2[nH]c2cccc([N+](=O)[O-])c12 [1-nitroacridone]	–	–	–	–	–	–	biological activity [1]: biologically inactive
C[n+]1c2cc(N)ccc2cc2ccc(N)cc21 [3,6-diamino-10-methyl-acridine]	60	14	slowed down the healing of the wound	caused tissue necrosis	can cause mutation of certain objects	exert a certain antimicrobial effect	growth of the Ehrlich ascites tumor [3]: inhibited
Nc1ccc2cc3ccc(N)cc3nc2c1 [3,6-diamino-acridine, 3,6-diaminoacridine]	84	65	slowed down the healing of the wound	caused tissue necrosis	can cause mutation of certain objects	exert a certain antimicrobial effect	–
C[n+]1c2cc(N[C@@H]3O[C@H](CO)[C@@H](O)[C@H](O)[C@H]3O)ccc2cc2ccc(N[C@@H]3O[C@H](CO)[C@@H](O)[C@H](O)[C@H]3O)cc21.[Cl-] [3,6-Di-(β-D-glucopyranosyl-amino)-10-N-methyl-acridinium chloride]	210	37	–	–	–	–	state of the animal concerning its condition ([7]; 6.25 mg/kg-12.5 mg/kg i.p.): improves the state of the animal concerning its condition; development of the Ehrlich tumor ([7]; test animals: mice and rats): inhibits the development of the Ehrlich tumor; formation of the Ehrlich tumor ([7]; test animals: mice and rats): prevents its formation; efficacy against fungi [8]: efficacious; efficacy against fungi [9]: efficacious; Change of body weight in g on the 7th day ([10]; 12.5 mg/kg.d on first, second and third day after infection, 7th day): +1.2 g; Change of body weight in g on the 12th day ([10]; 12.5 mg/kg.d on first, second and third day after infection, 12th day): +2.0 g; Change of body weight in g on the 21st day ([10]; 12.5 mg/kg.d on first, second and third day after infection, 21st day): +2.6 g; treated animals still living on the 40th day ([10]; 12.5 mg/kg.d, 40th day): all treated animals were still living; Average surviving time ([10]; 12.5 mg/kg.d, observation stopped on the 40th day): 40.0 days
OC[C@H]1O[C@@H](Nc2ccc3cc4ccc(N[C@@H]5O[C@H](CO)[C@@H](O)[C@H](O)[C@H]5O)cc4nc3c2)[C@H](O)[C@@H](O)[C@@H]1O [3,6-diamino-acridine-diglucoside, 3,6-Di-(β-Di-glucopyranosyl-amino)-acridine]	280	87	–	–	–	–	–
